Key:
[1] = tested on: human monocyte-derived macrophages; assay: Phase/contrast microscopy of transfected macrophages cultured with STING inhibitor; assay type: cell-based
Text: (D) In vitro phagocytosis assay of untransfected hMDMs (control) versus GFP-transfected macrophages treated with BX-795 (GFP + BX-795), with M2-like polarising factors (GFP + BX-795 + IL4/IL13 or IL10) or DMSO control (GFP). (E) Serum liver function tests and histological analysis of picrosirius red (PSR) staining of collagen in chronic CCl4mice treated with cryopreserved hMDM (cryo), GFP-transfected hMDM treated with DMSO (GFP), GFP-transfected hMDM treated with BX-795 (GFP+B) or PBS vehicle (vehicle). *p<0.05 one-way ANOVA.
Monocyte-derived macrophages were harvested, counted and resuspended at a density of 5 × 10^7 cells/mL of CliniMACS Electroporation Buffer (Miltenyi). 25-100 µg/mL of pMax-GFP plasmid (Lonza) was mixed with the cell suspension for electroporation. For electroporation, 100 µl of cell/plasmid mix was introduced into 0.2 cm electroporation cuvettes and electroporation conducted with the CliniMACS Prodigy Electroporator (Miltenyi). Parameters assessed were 1st pulse voltage and type, and 2nd pulse voltage, type and length. Following electroporation, cells were cultured as above, with or without the STING inhibitor BX-795 (Invivogen) up to a concentration of 10 µM.

hMDMs = assay: Phagocytosis assay with pHrodo E. coli red beads; assay type: cell-based, human; settings: GFP-transfected hMDMs relative to untransfected hMDMs
Protocol: Cells were seeded in 96 well plates at a density of 200,000 per well in triplicate wells and left to adhere overnight. The following day, medium was aspirated and replaced with TexMACS medium containing NucBlue reagent (Invitrogen) and incubated for 30 min at 37° C. to stain nuclei. Medium was aspirated, cells washed in PBS, and then 100 µl PBS was added to cells. 100 µl of pHrodo E. coli red beads (diluted 1:10 in PBS) was added to the cells, and the cells were observed using an Operetta (PerkinElmer) to photograph fluorescence every 5 minutes over 145 minutes using a 40X objective. Images were analysed using Columbus. Nuclei were identified by NucBlue staining, and pHrodo red fluorescence intensity was measured in a cytoplasmic ring region around the nucleus. Fluorescence is reported as average pHrodo red fluorescence per nucleus.

With `O=C(NCCCNc1nc(Nc2cccc(NC(=O)N3CCCC3)c2)ncc1I)c1cccs1` [BX-795] the “cell health and GFP expression” value ([1]; inhibitor at 10 µM) was “some loss of cells”, the “cell health and GFP expression” value ([1]; inhibitor up to 8 µM) was “remained healthy and GFP-expressing” and the “phagocytic capacity (average fluorescence of pHRodo beads per cell), of non-genetically modified hMDMs” value (hMDMs) was “approximately 66%”.
